Laboratory results published in patent publication US4197299A, “Anti-hypertensive derivatives of ergoline-2-thioethers and their sulphoxides” (priority 1977, dated 1980).
Structures can show the parent of a compound that is named as a salt. Where two headings read alike, the source gives them in different places.

Tests used:
[1] = test system: adrenalin; assay: Antiadrenalin activity in vitro (a); conditions: for adrenolytic activity (in words): as seen from the table (in vitro and in vivo); for Antiadrenalin activity in vitro EC50: in vitro (a), adrenolytic
Description: (a) J. Brugger, Helv. Physiol. Pharm. Acta 3, 117,
(c) G. Arcari & coll., Brit. J. Pharmacol. 34, 700,

[2] = Pharmacological properties, classical tests on laboratory animals; conditions: in vivo
Description: The compounds claimed in the present invention show interesting pharmacological properties, evidenced by means of classical tests on laboratory animals at extremely low doses.

[3] = test system: triptamine; assay: Antitriptaminic activity in vivo (g); conditions: sc, read-out: Antitriptaminic activity in vivo ED50
Description: (g) S. J. Corne et al., Brit. J. Pharmacol., 20, 106, 1963

[4] = test system: 5HT; assay: Anti 5HT activity in vitro (f); conditions: for anti-serotininic activity (in words): as seen from the table; for Anti 5HT activity in vitro EC50: in vitro (f)
[5] = test system: adrenalin; assay: Antiadrenalin activity in vivo (b)
Description: (b) F. P. Luduena et al., Arch. Int. Pharmacodyn. 122, 111,
(d) G. Arcari et Coll., Experientia 28, 819,

[6] = test system: BaCl2; assay: Anti BaCl2 activity (spasmolytic) (e)
Description: (e) Magnus Pflugers Arch. ges. Physiol., 102, 123,

[7] = Antiasthmatic test (Goose, Immunology 16, 749, 1969); type: in vivo
[8] = Analgesic activity; type: in vivo; conditions: for analgesic activity (in words): in vivo; for ED100: sc
[9] = test system: ptosis due to reserpine; assay: Antagonism to ptosis due to reserpine (antidepressive activity); type: in vivo; conditions: po
Description: Antagonism to ptosis due to reserpine (B. M.

[10] = test system: adrenalin; conditions: comparison value with reference (c) Arcari, Brit. J. Pharmacol. 34, 700; cited from earlier work
[11] = test system: adrenalin; conditions: iv, comparison value with reference (d) Arcari, Experientia 28, 819; cited from earlier work
[12] = in vivo (b), iv, read-out: Antiadrenalin activity in vivo ED50

**Q.** What does the source list for `CSc1[nH]c2cccc3c2c1C[C@@H]1[C@@H]3C[C@@H](COC(=O)N2CCCCC2)CN1C` [Compound 9, D-6-methyl-2-methylthio-8beta(piperidinocarbonyloxymethyl)ergoline]?
**A.** adrenolytic activity (in words) [1]: high; Antiadrenalin activity in vitro EC50 [1]: 1.8 ng/mL; pharmacological properties (in words) [2]: broad spectrum of pharmacologycal properties; ED50 ([3]; in vivo (g)): 10 mg/kg; anti-serotininic activity (in words) [4]: high; Anti 5HT activity in vitro EC50 [4]: 1 ng/mL; ED50 [5, 12]: 0.031 mg/kg; Anti BaCl2 activity EC50 [6]: 2200 ng/mL

**Q.** Which results are given for `CSc1[nH]c2cccc3c2c1C[C@@H]1[C@@H]3C[C@@H](COC(=O)N2CCCCCC2)CN1C` [Compound 10, D-6-methyl-2-methylthio-8beta(perhydroazepinylcarbonyloxymethyl)ergoline]?
**A.** ED100 ([7]; po, per os): 1 mg/kg; ED50 ([5]; route not printed there, read-out: adrenolytic ED50): 0.02 mg/kg

**Q.** Which results are given for `CSc1[nH]c2cccc3c2c1C[C@@H]1[C@@H]3C[C@@H](COC(=O)N2CCOCC2)CN1C` [Compound 11, D-6-methyl-2-methylthio-8beta(morpholinocarbonyloxymethyl)ergoline]?
**A.** adrenolytic activity (in words) [1]: high; Antiadrenalin activity in vitro EC50 [1]: 1.3 ng/mL; pharmacological properties (in words) [2]: broad spectrum of pharmacologycal properties; ED50 ([3]; in vivo (g)): 0.05 mg/kg; anti-serotininic activity (in words) [4]: high; Anti 5HT activity in vitro EC50 [4]: 0.01 ng/mL; ED50 [5, 12]: 0.0188 mg/kg; Anti BaCl2 activity EC50 [6]: 10000 ng/mL

**Q.** What does the source list for `CSc1c2c3c(cccc3n1C)[C@H]1C[C@@H](COC(=O)N(C)C)CN(C)[C@@H]1C2` [Compound 12, D-1,6-dimethyl-2-methylthio-8beta(dimethylaminocarbonyloxymethyl)ergoline maleate]?
**A.** analgesic activity (in words) [8]: potent analgesic activity; ED100 [8]: 2.5 mg/kg; ED100 [9]: 0.025 mg/kg

**Q.** Which ED100 [9] does the source give for `CCN(CC)C(=O)OC[C@@H]1C[C@@H]2c3cccc4c3c(c(SC)n4C)C[C@H]2N(C)C1` [Compound 13, D-1.6-dimethyl-2-methylthio-8beta(diethylaminocarbonyloxymethyl)ergoline maleate] here?
**A.** 0.5 mg/kg

**Q.** Which “analgesic activity (in words)” value [8] does the source give for `CSc1c2c3c(cccc3n1C)[C@H]1C[C@@H](COC(=O)N3CCCC3)CN(C)[C@@H]1C2` [Compound 14, D-1,6-dimethyl-2-methylthio-8beta(pyrrolidinocarbonyloxymethyl)ergoline ma leate] here?
**A.** potent analgesic activity

**Q.** What about the ED100 [8] of the same molecule?
**A.** 5 mg/kg

**Q.** And the ED100 [9]?
**A.** 0.025 mg/kg

**Q.** Which ED100 [9] does the source give for `CSc1c2c3c(cccc3n1C)[C@H]1C[C@@H](COC(=O)N3CCCCC3)CN(C)[C@@H]1C2` [Compound 15, D-1,6-dimethyl-2-methylthio-8beta(piperidinocarbonyloxymethyl)ergolinemaleate] here?
**A.** 0.01 mg/kg

**Q.** With `CSc1c2c3c(cccc3n1C)[C@H]1C[C@@H](COC(=O)N3CCCCCC3)CN(C)[C@@H]1C2` [Compound 16, D-1,6-dimethyl-2-methylthio-8beta(perhydroazepinylcarbonyloxymethyl)ergoline maleate] as the molecule, how does the ED100 [9] read?
**A.** 0.1 mg/kg

**Q.** For `CSc1c2c3c(cccc3n1C)[C@H]1C[C@@H](COC(=O)N3CCOCC3)CN(C)[C@@H]1C2` [Compound 17, D-1,6-dimethyl-2-methylthio-8beta(morpholinecarbonyloxymethyl)ergoline], which ED100 [9] is on record?
**A.** 0.5 mg/kg

**Q.** With `CCC(=O)O[C@](Cc1ccccc1)(c1ccccc1)[C@H](C)CN(C)C` [D-propoxyphene, reference compound] as the molecule, how does the ED100 [8] read?
**A.** 10 mg/kg

**Q.** Which ED100 [9] does the source give for `CN(C)CCCN1c2ccccc2CCc2ccccc21` [imipramine, reference compound] here?
**A.** 25 mg/kg

**Q.** Which ED50 [3] does the source give for `CN1C[C@H](CNC(=O)OCc2ccccc2)C[C@@H]2c3cccc4c3c(cn4C)C[C@H]21` [metergoline, reference compound] here?
**A.** 0.062 mg/kg

**Q.** With `CO[C@]12C[C@@H](COC(=O)c3cncc(Br)c3)CN(C)[C@@H]1Cc1cn(C)c3cccc2c13` [nicergoline] as the molecule, how does the “Antiadrenalin activity in vitro EC50” value [10] read?
**A.** 7 ng/mL

**Q.** And the “Antiadrenalin activity in vivo ED50” value [11]?
**A.** 20 μg/kg/iv

**Q.** Which “Anti BaCl2 activity EC50” value [6] does the source give for `COc1ccc(Cc2nccc3cc(OC)c(OC)cc23)cc1OC` [papaverine, reference compound] here?
**A.** 8900 ng/mL

**Q.** With `O=C(O)c1cc(=O)c2c(OCC(O)COc3cccc4oc(C(=O)O)cc(=O)c34)cccc2o1` [sodium chromoglycate] as the molecule, how does the ED100 ([7]; iv) read?
**A.** 5 mg/kg

**Q.** What about the “antiasthmatic activity by route” value ([7]; parenteral versus oral route) of the same molecule?
**A.** active only by the parenteral route, not by the oral route
